The source of these data is patent publication US10300052B2, “Methods for increasing CFTR activity” (THE UAB RESEARCH FOUNDATION, priority 2012, dated 2019).

The subject of assay [1] is human bronchial tissue. Nature of the assay: μOCT imaging of airway epithelial function in human bronchial tissue. As to the method:
FIGS. 6A-6C show the effects of CFTR activators on airway epithelial function in human bronchial tissue by μOCT. FIGS. 6A-6C show ASL depth (FIG. 6A), CBF (FIG. 6B) and MCT (FIG. 6C), respectively in response to ivacaftor treatment (10 μM).
To further investigate the role of CFTR activators in modulating airway epithelial cell function, CFTR activators were studied in combination with human bronchial tissue from a failed healthy donor. Human bronchial tissue was obtained and maintained as described herein. Control experiments were performed with the human bronchial tissue being exposed to DMSO control only (0.2%) and compared to ivacaftor treatment. FIGS. 6A-6C show ASL depth, CBF and MCT, respectively.
Samples of human trachea tissue were obtained from normal donor explant organs not selected for lung transplantation. Lung, mainstem bronchi, and trachea were resected en-bloc, transferred on wet ice, and large airways excised. Airway tissues were then immersed in ice cold DMEM following resection for transfer, then allowed to equilibrate to room temperature prior to mOCT imaging.
The μOCT system is a spectral-domain OCT implementation with several improvements to standard OCT that yield high resolution in both lateral and axial directions. The general layout and axial resolution characterization have been described (Liu et al., PLOSOne, 8(1), E54473-2013). A super-continuum source (Fianium SC450) provides the high-bandwidth, short coherence length light necessary for high axial resolution ([…]). […]
μOCT imaging was performed on various cells cultures with illumination incident on the apical side of the cells. […] ASL and PCL were measured directly from the thicknesses of the visible layers in the image with a correction applied for the index of refraction in the liquid (n=1.33). ASL and PCL were evaluated at 5 equally distributed regions of the image. CBF and MCT were determined from a time series of images. […] Up to 10 regions of ciliary activity per image sequence were assessed for CBF. […]

In assay [2] the target is T1, CFTR (Homo sapiens, UniProt P13569).
T1 construct: from tissue; host or cells: normal human trachea/bronchus from donor explant organs
Kind of assay: Short-circuit current (Isc) in primary non-CF human bronchial epithelial (HBE) cells. The class given is cell-based. Particulars: ivacaftor 10 μM after pre-stimulation with 100 nM forskolin, compared to forskolin alone (FIG. 1B). As to the method: In primary non-CF human bronchial epithelial (HBE) cells, ivacaftor also augmented CFTR-dependent anion transport activity following pre-stimulation with 100 nM forskolin, a dose chosen to induce cAMP levels matching CSE-exposed cells, increasing CFTR-dependent short-circuit current (Isc) compared to that stimulated by forskolin alone (FIG. 1B).
Primary human bronchial epithelial (HBE) cells were derived from lung explants after written informed consent was obtained from CF and non-CF subjects with confirmed CFTR genetics by methods described previously. Briefly, tissues were debrided immediately after surgical resection, washed twice in Minimum Essential Media (MEM) with 0.5 mg/ml DTT (Sigma-Aldrich, St. Louis, Mo.) and 25 U/ml DNAse I (Roche, Basel, Switzerland), and then placed in dissociation media containing MEM, 2.5 U/ml DNAse I, 100 μg/ml ceftazidime, 80 μg/ml tobramycin, 1.25 μg/ml amphotericin B, and 4.4 U/ml pronase (Sigma-Aldrich) for 24-36 h at 4° C. […]
Short-circuit current (Isc) was measured under voltage clamp conditions using MC8 voltage clamps and P2300 Ussing chambers (Physiologic Instruments, San Diego, Calif.) as previously described (2). […] A one-second three-mV pulse was imposed every 10 seconds to monitor resistance calculated using Ohm's law. […]

T1 sequence (P13569 whole entry): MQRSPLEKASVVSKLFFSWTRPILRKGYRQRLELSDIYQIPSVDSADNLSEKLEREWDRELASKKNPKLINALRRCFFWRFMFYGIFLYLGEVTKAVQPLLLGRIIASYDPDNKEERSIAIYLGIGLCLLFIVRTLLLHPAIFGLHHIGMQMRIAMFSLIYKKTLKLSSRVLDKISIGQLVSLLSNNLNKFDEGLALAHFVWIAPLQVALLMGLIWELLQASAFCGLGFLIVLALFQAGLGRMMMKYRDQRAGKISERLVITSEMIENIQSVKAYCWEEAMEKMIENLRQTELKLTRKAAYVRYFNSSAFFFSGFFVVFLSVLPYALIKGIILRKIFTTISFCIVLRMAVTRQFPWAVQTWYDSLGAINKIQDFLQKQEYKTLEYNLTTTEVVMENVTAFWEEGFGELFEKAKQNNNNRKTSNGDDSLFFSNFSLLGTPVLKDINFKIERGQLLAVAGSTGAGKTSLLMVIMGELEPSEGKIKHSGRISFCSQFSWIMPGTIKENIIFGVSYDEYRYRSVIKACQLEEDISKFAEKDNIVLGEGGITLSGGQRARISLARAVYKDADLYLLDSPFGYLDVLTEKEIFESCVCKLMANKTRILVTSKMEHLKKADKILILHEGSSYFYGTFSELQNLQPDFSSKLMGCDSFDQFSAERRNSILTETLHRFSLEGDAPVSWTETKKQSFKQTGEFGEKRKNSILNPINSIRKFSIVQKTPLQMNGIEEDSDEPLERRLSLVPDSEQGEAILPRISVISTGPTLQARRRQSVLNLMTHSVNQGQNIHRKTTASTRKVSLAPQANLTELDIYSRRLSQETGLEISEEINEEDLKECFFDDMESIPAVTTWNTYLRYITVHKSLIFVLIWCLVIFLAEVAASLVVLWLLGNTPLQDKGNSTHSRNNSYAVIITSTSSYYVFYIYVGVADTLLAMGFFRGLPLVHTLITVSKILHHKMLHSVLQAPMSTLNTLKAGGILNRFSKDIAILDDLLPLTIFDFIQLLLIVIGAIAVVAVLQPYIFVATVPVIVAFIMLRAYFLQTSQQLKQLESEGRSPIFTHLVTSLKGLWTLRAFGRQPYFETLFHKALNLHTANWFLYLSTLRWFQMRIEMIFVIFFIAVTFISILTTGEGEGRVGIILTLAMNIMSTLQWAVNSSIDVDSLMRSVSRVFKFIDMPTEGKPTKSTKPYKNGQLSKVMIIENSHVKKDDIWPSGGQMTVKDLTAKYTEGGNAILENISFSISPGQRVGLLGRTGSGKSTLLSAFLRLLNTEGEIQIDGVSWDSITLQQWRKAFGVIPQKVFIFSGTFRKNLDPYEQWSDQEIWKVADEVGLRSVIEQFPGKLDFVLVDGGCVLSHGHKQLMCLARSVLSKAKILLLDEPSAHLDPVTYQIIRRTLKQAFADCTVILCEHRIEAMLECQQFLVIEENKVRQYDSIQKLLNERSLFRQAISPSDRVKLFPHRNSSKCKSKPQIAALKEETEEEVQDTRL

On to `CC(C)(C)c1cc(C(C)(C)C)c(NC(=O)c2c[nH]c3ccccc3c2=O)cc1O` [ivacaftor], for which the CBF frequency result in assay [1] (ivacaftor 10 μM vs DMSO control (FIG. 6B)) was “significantly increased”. In addition, in assay [1] (ivacaftor 10 μM, DMSO control approximately 10 microns (FIG. 6A)), the ASL depth result is given as “approximately 30 microns”. For the same molecule, the MCT in assay [1] (ivacaftor 10 μM, control less than 0.01 mm/min (FIG. 6C)) is on record as around 0.04 mm/min. Also, the “CFTR-dependent anion transport activity (short-circuit current, Isc)” value in assay [2] is given as “augmented”.
